Where two headings read alike, the source gives them in different places.
Assays:
[1] = target: T1, α-glucosidase (Saccharomyces cerevisiae, UniProt P53341); assay: AGI kinetic analysis (Lineweaver–Burk plots); assay type: biochemical
Experimental: Four isocoumarins 1–4 and four flavonoids 5–8 were identified from the APE fraction, and AGI kinetic analyses were performed. During the reaction, α-glucosidase (0.76 unit/mL in 100-mmol phosphate buffer [pH 6.9]) activity was inhibited by the compounds (I) in the presence of the substrate (4-mmol p-nitrophenyl-α-D-glucopyranoside in 100-mmol phosphate buffer [pH 6.9]). The inhibition modes (competitive, uncompetitive, non-competitive, or mixed) of isocoumarins 1–4 and flavonoids 5–8 were examined using nonlinear regression Michaelis–Menten enzyme kinetics. The Lineweaver–Burk plot methods were used to determine kinetic parameters at increasing substrate and compound concentrations, and the parameters were calculated using a nonlinear regression program (Sigma Plot; SPCC Inc., Chicago, IL, USA). The obtained results represent three independent experiments.

[2] = target: T1, α-glucosidase; details: has been reported; cited from earlier work

T1 sequence (P53341 whole entry): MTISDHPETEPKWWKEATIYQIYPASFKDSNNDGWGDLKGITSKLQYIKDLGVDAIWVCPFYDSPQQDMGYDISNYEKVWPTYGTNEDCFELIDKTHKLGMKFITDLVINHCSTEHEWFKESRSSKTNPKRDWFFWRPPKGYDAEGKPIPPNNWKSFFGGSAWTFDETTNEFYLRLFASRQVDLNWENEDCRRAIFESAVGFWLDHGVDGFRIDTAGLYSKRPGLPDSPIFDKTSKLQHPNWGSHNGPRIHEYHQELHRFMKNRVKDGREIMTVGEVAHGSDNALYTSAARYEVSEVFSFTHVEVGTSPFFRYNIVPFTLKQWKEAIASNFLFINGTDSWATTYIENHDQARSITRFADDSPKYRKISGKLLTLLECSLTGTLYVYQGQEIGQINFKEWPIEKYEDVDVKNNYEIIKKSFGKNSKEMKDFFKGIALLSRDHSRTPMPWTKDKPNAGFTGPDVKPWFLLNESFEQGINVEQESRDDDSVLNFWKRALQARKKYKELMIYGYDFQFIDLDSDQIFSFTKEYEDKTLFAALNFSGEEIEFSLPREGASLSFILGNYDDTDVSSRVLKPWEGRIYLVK

| Structure (SMILES) | Inhibition Mode [1] | Inhibition Mode [2] |
| --- | --- | --- |
| COc1ccc(CCC2Cc3cc(O)cc(O)c3C(=O)O2)cc1 (stereo not drawn) [Compound 1, agrimonolide] | Non-competitive | – |
| O=C1OC(CCc2ccc(O)cc2)Cc2cc(O)cc(O)c21 (stereo not drawn) [Compound 3, desmethylagrimonolide] | Non-competitive | – |
| O=c1c(O)c(-c2ccc(O)c(O)c2)oc2cc(O)cc(O)c12 [Compound 6, quercetin] | – | competitive |

Reference: article PMC7321404, “Isolation of Isocoumarins and Flavonoids as α-Glucosidase Inhibitors from Agrimonia pilosa L” (Molecules, 2020)
